Test results as given in paper PMC9150099, “Preventing Influenza A Virus Infection by Mixed Inhibition of Neuraminidase and Hemagglutinin by Divalent Inhibitors” (Journal of Medicinal Chemistry, 2022).

How the values were obtained:
[1] = system: HA on virus particle (Neth09H1N1); assay type: binding, Influenza virus A/Netherlands/602/2009 (Neth09H1N1)
[2] = system: recombinant soluble tetrameric N1 and N9 proteins (neuraminidase); assay type: biochemical; conditions: for IC50: read-out: inhibition of recombinant NA tetramers in enzymatic MUNANA assay (IC50 μM)
[3] = target: Recombinant soluble N9 protein (N9 Spain) neuraminidase tetramer (Influenza A virus, UniProt K9MBB0); assay type: biochemical, Influenza A virus A/Anascrecca/Spain/1460/2008(H7N9)
[4] = system: Neth09H1N1 virus infection of MDCK cells; assay type: cell-based, Influenza virus A/Netherlands/602/2009 (Neth09H1N1)
[5] = target: NA of the whole Neth09H1N1 virus (Influenza A virus, UniProt C3PSV3); assay type: biochemical, Influenza virus A/Netherlands/602/2009 (Neth09H1N1); conditions: for IC50: read-out: inhibition of NA of the whole virus in enzymatic MUNANA assay (IC50 μM)
NA of Neth09H1N1 virus = assay type: biochemical, Influenza virus A/Netherlands/602/2009 (Neth09H1N1)
[6] = system: HA on virus particle (Neth09H1N1); conditions: cited from earlier work

Row | Compound | inhibition of virus-receptor binding (HA inhibition) by BLI [1] | IC50 [2] | CPE assay [4] | CPE reduction assay on MDCK cells, lowest concentration that inhibits CPE formation [4] | IC50 [5] | also measured
1 | C#CCCCC[C@H](CC)O[C@@H]1OC(C(=O)O)=C[C@H](O)[C@H]1NC(C)=O [Compound 12] | significant HA binding | 6.4 ± 1 µM | >5 mM | >5 µM | 2.33 ± 0.005 µM | potency difference to OC (OC more potent) [2]: ca. 600 fold; reduction of potency relative to parent OCM [3]: 6 fold; potency difference to OC (OC more potent) [5]: ca. 600 fold
2 | C#CCCCC[C@H](CC)O[C@H]1OC(C(=O)O)=C[C@H](O)[C@H]1NC(C)=O [Compound 14] | – | – | – | – | – | IC50, NA (N9 Spain) MUNANA enzyme inhibition [3]: no inhibition
3 | C#CCCCC[C@@H](CC)O[C@H]1OC(C(=O)O)=C[C@H](O)[C@H]1NC(C)=O [Compound 15] | – | – | – | – | – | IC50, NA (N9 Spain) MUNANA enzyme inhibition [3]: no inhibition
4 | CC[C@@H](CCCCc1cn([C@H]2[C@H](OC(C)=O)[C@@H](OC(C)=O)[C@H](n3cc(CCCC[C@H](CC)O[C@@H]4OC(C(=O)O)=C[C@H](O)[C@H]4NC(C)=O)nn3)O[C@@H]2COC(C)=O)nn1)O[C@@H]1OC(C(=O)O)=C[C@H](O)[C@H]1NC(C)=O [Compound 17a] | – | 24.4 ± 17.5 µM | >5 mM | >5 µM | 9.4 ± 0.4 µM | –
5 | CC[C@@H](CCCCc1cn([C@H]2[C@H](O)[C@@H](O)[C@H](n3cc(-c4ccc(-c5cn([C@H]6[C@H](O)[C@@H](O)[C@H](n7cc(-c8ccc(-c9cn([C@@H]%10O[C@H](CO)[C@@H](n%11cc(CCCC[C@H](CC)O[C@@H]%12OC(C(=O)O)=C[C@H](O)[C@H]%12NC(C)=O)nn%11)[C@H](O)[C@H]%10O)nn9)cc8)nn7)O[C@@H]6CO)nn5)cc4)nn3)O[C@@H]2CO)nn1)O[C@@H]1OC(C(=O)O)=C[C@H](O)[C@H]1NC(C)=O [Compound 21] | largest effect | 1.3 ± 0.4 µM | 0.45 ± 0.4 mM | 0.45 ± 0.4 µM | 0.11 ± 0.004 µM | inhibition of virus binding to the BLI sensor, compound alone [1]: sufficient to prevent apparent viral binding to the sensor; inhibition of virus-receptor binding by BLI in the presence of OC (Figure 5a) [1]: inhibited virus-receptor binding; potency difference to OC (OC more potent) [2]: ca. 100 fold; NA inhibition judged from virus re-binding to regenerated sensor (NA of Neth09H1N1 virus): able to inhibit the NA; amount needed to prevent cell killing (CPE) relative to IC50 in MUNANA assay with the whole virus [4]: 4 fold; better CPE inhibitor than OC [4]: ca. 2 fold; multivalency enhancement in comparison with monovalent 12 [5]: 20–30 fold; potency difference to OC (OC more potent) [5]: ca. 25 fold
6 | CC[C@@H](CCCCc1cn([C@H]2[C@H](O)[C@@H](O)[C@H](n3cc(-c4ccc(-c5cn([C@@H]6O[C@H](CO)[C@@H](n7cc(-c8cc(O)c(-c9cn([C@@H]%10O[C@H](CO)[C@@H](n%11cc(-c%12ccc(-c%13cn([C@@H]%14O[C@H](CO)[C@@H](n%15cc(CCCC[C@H](CC)O[C@@H]%16OC(C(=O)O)=C[C@H](O)[C@H]%16NC(C)=O)nn%15)[C@H](O)[C@H]%14O)nn%13)cc%12)nn%11)[C@H](O)[C@H]%10O)nn9)cc8O)nn7)[C@H](O)[C@H]6O)nn5)cc4)nn3)O[C@@H]2CO)nn1)O[C@@H]1OC(C(=O)O)=C[C@H](N)[C@H]1NC(C)=O [Compound 24] | did not have increased inhibitory activity compared to monovalent 12 | 10.6 ± 1.7 µM | 0.84 ± 0.4 mM | 0.84 ± 0.4 µM | 4.7 ± 0.9 µM | amount needed to prevent cell killing (CPE) relative to IC50 in MUNANA assay with the whole virus [4]: 0.2 fold
7 | CCC(CC)O[C@@H]1C=C(C(=O)O)C[C@H](N)[C@H]1NC(C)=O [OC, oseltamivir carboxylate, reference compound] | – | – | 1.0 ± 0.4 mM | 1.0 ± 0.4 µM | 0.004 ± 0.001 µM | interference with HA-receptor binding [6]: does not interfere with HA-receptor binding
8 | CCC(CC)O[C@@H]1OC(C(=O)O)=C[C@H](O)[C@H]1NC(C)=O [OCM, reference compound] | can be observed | – | – | – | – | –
